Measurements reported in PMC5679667 (PLoS ONE, 2017).

Target: T1, ecAT3.10 (extracellular ATeam3.10) (Bacillus sp. PS3, UniProt P07678)
T1 construct: gene atpC; ATeam3.10 (epsilon subunit between CFP and YFP) with N-terminal IgK leader and C-terminal PDGFR transmembrane anchor; on surface of Neuro2A cells
Experiment: live-cell FRET/CFP ratio imaging
Type: cell-based
Conditions: Neuro2A cells, continuous perfusion, pH 7.3, room temperature; printed error probably a misprint

T1 sequence (P07678 whole entry): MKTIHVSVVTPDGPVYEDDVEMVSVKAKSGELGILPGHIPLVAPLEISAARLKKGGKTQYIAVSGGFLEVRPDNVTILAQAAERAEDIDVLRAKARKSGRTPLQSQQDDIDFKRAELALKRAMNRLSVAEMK

SMILES: Nc1ncnc2c1ncn2[C@@H]1O[C@H](COP(=O)(O)OP(=O)(O)O)[C@@H](O)[C@H]1O [ADP]
- fold increase in ratio signal at 100 μM: 1.026 ± 1.005
